Measurements taken from US20220175862A1, “CO-ADMINISTRATION COMPOSITION FOR PREVENTING OR TREATING HYPERCHOLESTEROLEMIA, CONTAINING BALLOON-FLOWER EXTRACT OR PLATYCODIN D DERIVED THEREFROM AS ACTIVE INGREDIENT” (University-Industry Cooperation Group of Kyung Hee …, priority 2019, published 2022).

Columns and labels:
[1] = tested on: HepG2 cells; experiment: Cell viability assay (WST); format: cell-based; settings: 24 h
Protocol: Cells were dispensed in a 96-well plate and treated with PG (10 μg/mL, 50 μg/mL, 100 μg/mL, 250 μg/mL, 500 μg/mL) or PD (1 μM, 2.5 μM, 5 μM) for 24 h. After incubation, a WST solution (Daeillab Service, Co., Seoul, Korea) was added to each well and further incubated for 2 h. Next, water-soluble formazan in the medium was measured at 450 nm using an ELISA reader (Molecular Devices, Palo Alto, Calif.).
To investigate whether PG and PD display cytotoxic effects on HepG2 cells, cell viability was examined by WST1 assay following treatment with different concentrations of PG (10 μg/mL, 50 μg/mL, 100 µg/mL, 250 μg/mL, 500 μg/mL) or PD (1 μM, 2.5 μM, 5 μM). […] However, when high concentrations of 500 μg/mL of PG and 5 μM of PD were treated, cell viability was measured as 85% and 86%, respectively.

[2] = tested on: LDLR expression in HepG2 cells; experiment: LDLR protein expression by Western blot; format: cell-based; settings: 24 h
Protocol: (§1) Cells were treated with PD and PG for 24 h. Proteins were separated on 10% SDS-PAGE and transferred to nitrocellulose membranes. The membranes were incubated overnight at 4° C. For reference, anti-LDLR, Mylip/IDOL and LXRα were purchased from Abcam (Cambridge, UK), and anti-GAPDH was purchased from Cell Signaling (MA, USA). Further, anti-PCSK9 was purchased from Proteintech (Chicago. USA). The blots were then incubated with HRP-conjugated secondary antibody for 1 h at room temperature and measured using a Pierce ECL Western Blotting Substrate (Thermo Scientific, MA, USA).
There is a report that LDLR mediates the uptake of LDL-induced cholesterol from plasma, lowering blood cholesterol levels. Therefore, it was examined whether PG and PD upregulate LDLR expression in HepG2 cells.
Generally, statins are widely used for lowering blood levels of LDL-C, because they upregulate hepatic LDLR expression and enhance the uptake of LDL-C in the blood. To investigate whether PG and PD have a synergistic effect with statins on LDLR expression, HepG2 cells were treated with PG or PD together with simvastatin for 24 h, and then the expression levels of LDLR were examined by Western blotting.

[3] = tested on: cell surface LDLR in HepG2 cells; experiment: Cell surface LDLR analysis by flow cytometry; format: cell-based; settings: 2.5 μM of PD, 24 h
Protocol: Cells were treated as described above for 24 h, harvested, and then incubated at 37° C. for 30 min with anti-LDLR (Abcam, Cambridge, UK) diluted at 1:60 in PBS containing 5% BSA. The cells were washed with 1% BSA in PBS and incubated with Alexa Fluor 488-conjugated goat anti-rabbit IgG (Invitrogen, CA, USA) using a 1:250 dilution at 37° C. for 30 min. The cells were fixed with 0.5% PFA for 10 min, resuspended in PBS, and measured by flow cytometry (FACSCalibur, BD Biosciences, San Jose, Calif., USA). Data were analyzed using a CellQuest Pro software (BD Biosciences, USA).
Next, FACS analysis was performed to examine whether PG and PD increase LDLR expression on cell surface.

[4] = tested on: LDL uptake in HepG2 cells; experiment: LDL uptake assay (BODIPY-FL-LDL, confocal microscopy); format: cell-based; settings: PD 2.5 μM 24 h, then BODIPY-LDL 1 h
Protocol: Cells were dispensed in a 24-well plate and treated as described above. After treatment with drugs, the culture medium was removed and replaced with 5 μg/mL of BODIPY-FL-LDL (Invitrogen, CA, USA) at 37° C. for 1 h. The cells were washed with PBS containing 0.3% BSA and fixed with 4% paraformaldehyde (PFA) for 10 min. Nuclei were stained with 1 μg/mL of DAPI in 2% BSA for 1 min and analyzed using confocal microscopy.
Then, confocal microscopy was performed.

[5] = tested on: LDLR mRNA in HepG2 cells; experiment: LDLR mRNA expression by RT-PCR; format: cell-based; settings: PD 1 μM, 2.5 μM, 24 h
Protocol: (§2) Cells were dispensed in a 6-well plate, and treated with PD or PG for 24 h, and then total RNA was extracted using an R&A-BLUE Total RNA extraction kit (iNtRON Biotechnology, Inc., Korea). Next, complementary DNA (cDNA) was synthesized from 1 μg of RNA using a PrimeScript 1 st strand cDNA Synthesis Kit (Takara Biotechnology, Dalian. Liaoning, China). RT-PCR was performed with a Maxime PCR PreMix Kit (i-StarTaq) (iNtRON Biotechnology, Inc., Korea). Sequences of primers used herein are as in Table 1, and GAPDH was used as an internal control.
To define molecular mechanisms underlying the increased LDLR expression by PG and PD treatment, the effects of PG and PD on expression of genes including IDOL and PCSK9, which are known to regulate LDLR protein levels, were first examined.

[6] = tested on: PCSK9; experiment: PCSK9 Western blot; format: cell-based; settings: 24 h, indicated concentrations
Protocol: as §1

[7] = tested on: IDOL mRNA in HepG2 cells; experiment: IDOL mRNA expression by RT-PCR; format: cell-based
Protocol: as §2
To examine whether PD suppresses IDOL mRNA expression, co-treatment of T0901317 (LXR agonist) and PD was performed for 24 h. The LXR is a transcription factor that activates a target gene involved in lipid and cholesterol homeostasis, and IDOL is a representative target gene of LXR. In addition. T0901317 increases the expression of IDOL by binding to LXR.

[8] = tested on: LDLR protein; experiment: LDLR protein stability after cycloheximide (CHX) treatment, Western blot; format: cell-based; settings: PD 2.5 μM 24 h, then 100 μg/mL CHX
Protocol: as §1
Considering that IDOL mRNA is decreased upon PG and PD treatment, it could be inferred that PG and PD are able to enhance LDLR protein stability. Therefore, LDLR protein levels remaining after treatment with cycloheximide (CHX) which blocks new protein synthesis were examined.

[9] = tested on: LXRα; experiment: LXRα protein expression by Western blot; format: cell-based; settings: PD 1 μM, 2.5 μM, 5 μM, 24 h
Protocol: as §1

[10] = tested on: hypercholesterolemia-induced rat; settings: cited from earlier work

C[C@@H]1O[C@@H](O[C@H]2[C@H](OC(=O)[C@]34CCC(C)(C)C[C@H]3C3=CC[C@@H]5[C@@]6(C)C[C@H](O)[C@H](O[C@@H]7O[C@H](CO)[C@@H](O)[C@H](O)[C@H]7O)C(CO)(CO)[C@@H]6CC[C@@]5(C)[C@]3(C)C[C@H]4O)OC[C@H](O)[C@@H]2O)[C@H](O)[C@H](O)[C@H]1O[C@@H]1OC[C@@H](O)[C@H](O[C@@H]2OC[C@](O)(CO)[C@H]2O)[C@H]1O [PD, Platycodin D]
cell viability ([1]; 5 μM of PD): 86% | cytotoxic effects on HepG2 cells ([1]; PD 1 μM to 2.5 μM): no significant cytotoxic effects | LDLR expression (Western blot) ([2]; HepG2 cells): induce LDLR expression in HepG2 cells in a dose-dependent manner | cell surface LDLR levels, as compared with a control [3]: 1.2±0.07 fold change | increase in the uptake of LDL particles vs untreated control cells [4]: 1.7 fold | LDLR mRNA expression [5]: no significant effects | proteolytic process of PCSK9 [6]: do not affect | mRNA levels of IDOL ([7]; HepG2, 24 h): significantly decreased | T0901317-induced increase of IDOL mRNA ([7]; co-treatment PD 2.5 μM and T0901317 10 μM, 24 h): attenuated | LDLR protein stability after CHX, vs untreated cells [8]: significantly stable | LXR-α protein levels [9]: did not change | cholesterol in the body [10]: effect of lowering cholesterol

O=S(=O)(c1ccccc1)N(CC(F)(F)F)c1ccc(C(O)(C(F)(F)F)C(F)(F)F)cc1 [T0901317, reference compound]
mRNA levels of IDOL gene ([7]; T0901317 10 μM, 24 h): increased

CCC(C)(C)C(=O)O[C@H]1C[C@@H](C)C=C2C=C[C@H](C)[C@H](CC[C@@H]3C[C@@H](O)CC(=O)O3)[C@H]21 [simvastatin, reference compound]
increase in hepatic LDLR levels vs untreated control cells ([2]; simvastatin 1 μM alone, HepG2): approximately 2.2 fold
